We go through 1 compound from paper PMC5618657, “Osmolyte-Like Stabilizing Effects of Low GdnHCl Concentrations on D-Glucose/D-Galactose-Binding Protein” (International Journal of Molecular Sciences, 2017).

What all share (parameters): species or system E. coli
One assay addresses T1, GGBP/H152C (Escherichia coli, UniProt P0AEE5, H175C).
T1 construct: polyhistidine (C); made in house; host or cells: E. coli BL21(DE3)
Put plainly: Isothermal titration calorimetry of glucose binding (mutant). The note with it: Kd (ITC). An excerpt:
(§1) For this purpose, we used isothermal titration calorimetry (ITC) (Figure 7), since this approach allows for the determination of both the stoichiometric and thermodynamic binding parameters. The results of the ITC analysis generally corresponded to the data generated by the fluorescent-based analysis of the GGBP/H152C-BADAN interaction with glucose in solutions with sub-denaturing GdnHCl concentrations. […] The enthalpy contribution to the Gibbs free energy change caused by the interaction of studied proteins with glucose was principal in all solutions tested. This indicates the significant contribution of the hydrogen bonds between protein and glucose to the protein-ligand complex formation, [91] which is in excellent agreement with the X-ray structural data showing that the glucose binding to the GGBP active center is stabilized by 13 hydrogen bonds. […]
(§2) The parameters of the binding of mutant GGBP/H152C and wtGGBP with glucose in buffer, GdnHCl, and urea solutions were determined using the isothermal titration calorimeter TA Nano ITC (TA Instruments, New Castle, DE, USA) at the Resource Center of the Thermogravimetric and Calorimetric Research (Research Park of St. Petersburg State University). […]

Another assay concerns the target T2, GGBP/H152C-BADAN (Escherichia coli, UniProt P0AEE5, H175C).
T2 construct: polyhistidine (C); BADAN (fluorescent dye covalently linked to Cys152); made in house; host or cells: E. coli BL21(DE3)
Put plainly: Stopped-flow fluorescence kinetics of glucose binding. The note with it: glucose 0.5 mM, protein 0.6 μM, 23 °C. An excerpt:
The greater affinity of GGBP to glucose in the presence of low GdnHCl concentrations was also manifested by an increase in the binding rate of glucose to the protein in the presence of 0.1 M GdnHCl. It is known that, at high concentrations of one of the reactants, the reaction rate is predominately determined by the content of the substance with a low concentration (pseudo-first order conditions). Therefore, it can be expected that in solutions of high glucose concentration, the rate of the GGBP/H152C-glucose complex formation will be determined by the content of molecules with the semi-closed conformations in a protein ensemble. […]
It is expected that the decay curves should contain at least two rate constants characterizing the interconversion between the protein conformers in the absence of ligand and reflecting the glucose binding to GGBP/H152C [88]. […] Therefore, in practice, the recorded curves are approximated by monoexponential decay.
The kinetics of glucose binding to GGBP/H152C-BADAN in a timeframe from 0 to 0.04 s was measured using the MOS450spectrometerequipped with the stopped-flow mixing module SFM-4 (Bio-Logic, Seyssinet-Pariset, France). The excitation wavelength was 387 nm, the dye fluorescence signal was filtered by cut-off filter at 405 nm. […]

Another assay concerns the target T3, wtGGBP (Escherichia coli, UniProt P0AEE5).
T3 construct: polyhistidine (C); made in house; host or cells: E. coli BL21(DE3)
Put plainly: Isothermal titration calorimetry of glucose binding (wild type). The note with it: read-out: Kd (ITC).
Source text: as §1, §2
(In general: In ITC the heat of successive injections is recorded.)

Where [1] appears, read: solution without denaturants (black).

Like-named read-outs stand apart in the source and are kept apart here.

T3 sequence (P0AEE5 24-332 limits assumed): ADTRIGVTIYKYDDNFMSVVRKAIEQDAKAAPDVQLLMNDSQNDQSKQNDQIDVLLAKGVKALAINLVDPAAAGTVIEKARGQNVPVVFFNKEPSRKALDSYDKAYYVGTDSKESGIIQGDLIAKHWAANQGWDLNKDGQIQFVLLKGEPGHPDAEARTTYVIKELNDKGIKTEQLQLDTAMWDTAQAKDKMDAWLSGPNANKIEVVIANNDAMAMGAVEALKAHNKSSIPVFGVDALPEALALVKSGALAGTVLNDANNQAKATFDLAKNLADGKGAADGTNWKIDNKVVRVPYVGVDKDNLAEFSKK
T1 sequence (P0AEE5 24-332 H175C limits assumed): as the sequence (P0AEE5 24-332 limits assumed) above, with H152C counted along it
T2 sequence (P0AEE5 24-332 H175C limits assumed): as the sequence (P0AEE5 24-332 limits assumed) above, with H152C counted along it

For the compound `OC[C@H]1OC(O)[C@H](O)[C@@H](O)[C@@H]1O` (stereo partly drawn) [glucose, D-Glucose], the equilibrium dissociation constant (Kd) at GGBP/H152C (0.1 M GdnHCl (red)) turned out to be 2290 ± 80 nM; at GGBP/H152C (setting [1]), 3050 nM; at wtGGBP (0.1 M GdnHCl (red)), 280 ± 60 nM; on wtGGBP (setting [1]), 310 nM. Further, the “k (rate of GGBP/H152C-glucose complex formation)” value came out at 508 s⁻¹ on GGBP/H152C-BADAN (in 0.1 M GdnHCl) and 465 s⁻¹ on GGBP/H152C-BADAN (without denaturants).

Usually Kd stands for a measure of binding affinity in units of concentration.
